The data set in a line: MDI inserted through a port into an oxygen mask without extender tube at 2-15 L/min oxygen flow, measured blood levels. As to conditions: 2-15 L/min oxygen flow (wash-out). Format: in vivo, patient. The source says: The relatively high flow oxygen jet disperses the drug aerosol initially expressed into the mask from the MDI that was inserted into the mask, and as a result, much of the drug is dispersed around the interior of the mask and is washed out of the mask and back out through the MDI housing to ambient by the flow of oxygen, rather than being inhaled by the patient.
In this invention, an extender tube 300 (FIG. 12) is provided that can be inserted into or over the mouthpiece section 230 of an MDI body (FIGS. 8A, 8B, and 9). […] This use of the tube to channel the inhalable medication from an MDI to the mouth of the patient addresses the problem noted above that simply inserting an MDI mouthpiece into a mask with a flow of oxygen causes “wash-out” of the drug, i.e., the drug aerosol or particles (i.e., the discharge from an MDI) are dispersed within the mask and out to ambient, and as a result measured drug levels inhaled by the patient are very low. In the instant invention, measured drug levels of the MDI drug in the lung are high.

Each structure is given as a SMILES string.

Here are results for one compound from patent US12280212B2, “Method and apparatus for simultaneously administering oxygen, and metered dose inhaler medication by inhalation” (priority 2019, dated 2025).

Turning to `CC(C)(C)NCC(O)c1ccc(O)c(CO)c1` (stereo not shown) [albuterol HFA, albuterol], the “measured blood levels of the albuterol drug” value is “negligible”.
